The text below walks through data of US5925633A, “3-Substituted-4-oxa-1-azabicyclo [3,2,0]heptan-7-one as cysteine protease inhibitors” (Synphar Laboraties, Inc., priority 1996, dated 1999).

In experiment [1] the target is T1, papain (Carica papaya, UniProt P00784).
T1 sequence (P00784 134-345): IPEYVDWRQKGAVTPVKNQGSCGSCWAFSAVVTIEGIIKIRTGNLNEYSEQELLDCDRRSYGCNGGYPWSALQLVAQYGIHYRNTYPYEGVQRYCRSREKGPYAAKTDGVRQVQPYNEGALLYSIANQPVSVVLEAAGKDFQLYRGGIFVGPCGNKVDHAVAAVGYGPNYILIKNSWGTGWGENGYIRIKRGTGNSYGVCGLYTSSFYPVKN
The experiment is described as follows: In vitro assay procedure for papain (inhibition). It counts as biochemical. The procedure: To a 170 μl of enzyme-buffer mixture (enzyme: papain, diluted to give 30 mOD/min, buffer: 0.2 M potassium phosphate, 1.0 mM EDTA, 5 mM L-Cysteine, pH 6.5) a 10 μL of inhibitor (dissolved in DMSO) was added. After 10 min of incubation at room temperature, a 20 μl of 10 mM substrate (N-CBZ-Pro-Phe-Arg-pNA, dissolved in DMSO) was added to initiate reaction. Reading is followed up for 3 min at the Thermomax plate reader (absorbance at 405 nm)
A plot of percentage of inhibition vs inhibitor concentration is obtained, and IC50 is determined using a linear regression calculations (concentration of inhibitor which will give 50% inhibition).

Experiment [2] addresses cathepsin B (Rattus norvegicus, UniProt P00787). The experiment is described as follows: In vitro assay procedure for cathepsin B (inhibition). It counts as biochemical.
Description: The compounds of formula I were tested for inhibition of cathepsin B using the known method (A. J. Barret et al., Biochem. J. 1982, 201, 189-198). […] After 10 min of incubation at room temperature, a 20 μl of 5 mM substrate (N-CBZ-Phe-Arg-AMC, dissolved in DMSO) was added to initiate reaction. Reading is followed up for 10 min at the fluoroscan reader (excitation at 380 nm, emission at 460 nm).
[3] abbreviates: rat cathepsin B, pH 5.1, 10 min incubation at room temperature, substrate N-CBZ-Phe-Arg-AMC, read-out: IC50 Cathepsin B.
Where [4] appears, read: pH 6.5, 10 min incubation at room temperature, substrate N-CBZ-Pro-Phe-Arg-pNA, read-out: IC50 Papain.

Read-outs that look alike come from different tables or passages of the source. Bounds are passed on as bounds.

Sequence of cathepsin B (P00787 80-339): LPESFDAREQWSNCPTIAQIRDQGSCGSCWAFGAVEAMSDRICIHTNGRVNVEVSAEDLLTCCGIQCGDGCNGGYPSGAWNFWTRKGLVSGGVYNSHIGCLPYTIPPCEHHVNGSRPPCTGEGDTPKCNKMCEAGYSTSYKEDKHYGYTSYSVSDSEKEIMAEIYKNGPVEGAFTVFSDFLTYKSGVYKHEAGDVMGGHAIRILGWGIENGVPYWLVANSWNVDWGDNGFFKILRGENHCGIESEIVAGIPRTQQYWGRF

One may read the IC50 as the concentration that gives 50% inhibition. `O=C(O)CC1CN2C(=O)CC2O1` (stereo not shown): the IC50 in experiment [1] came out at 1690 nM; in experiment [2] (setting [3]), 3980 nM.
For `O=C(N[C@@H](Cc1ccccc1)C(=O)OC[C@H]1CN2C(=O)C[C@@H]2O1)OCc1ccccc1` (mixture of isomers) [Example 4, (3RS,5SR)-3-{N-(benzyloxycarbonyl)-L-phenylalanyl}-oxymethyl-4-oxa-1-azabicyclo [3,2,0] heptan-7-one], the IC50 in experiment [1] (setting [4]) was found to be 240 nM; in experiment [2] (setting [3]) it was 590 nM.
For `O=C(OC[C@H]1CN2C(=O)C[C@@H]2O1)[C@@H]1CCCN1C(=O)OCc1ccccc1` (mixture of isomers) [Example 5, (3RS,5SR)-3-{N-(benzyloxycarbonyl)-L-prolyl}-oxymethyl-4-oxa-1-azabicyclo[3,2,0] heptan-7-one], in that order: 490 nM and 440 nM.
Take `CC[C@H](C)[C@H](NC(=O)OCc1ccccc1)C(=O)OC[C@H]1CN2C(=O)C[C@@H]2O1` (mixture of isomers) [Example 6, (3RS,5SR) -3-{N-(benzyloxycarbonyl)-L-isoleucyl}-oxymethyl-4-oxa-1-azabicyclo [3,2,0] heptan-7-one]: the IC50 in experiment [1] (setting [4]) turned out to be 380 nM; in experiment [2] (setting [3]) it was 510 nM.
The matching figures for `O=C(CNC(=O)[C@H](Cc1ccccc1)NC(=O)OCc1ccccc1)OC[C@H]1CN2C(=O)C[C@@H]2O1` (mixture of isomers) [Example 7, (3RS,5SR)-3-{N-(benzyloxycarbonyl)-L-phenylalanyl-glycyl}-oxymethyl-4-oxa-1-azabicyclo [3,2,0] heptan-7-one]: 3510 nM and 3110 nM.
The matching figures for `CC[C@H](C)[C@H](NC(=O)OCc1ccccc1)C(=O)N1CCC[C@H]1C(=O)OC[C@H]1CN2C(=O)C[C@@H]2O1` (mixture of isomers) [Example 8, (3RS, 5SR)-3-{N-(benzyloxycarbonyl)-L-isoleucyl-L-prolyl}-oxymethyl-4-oxa-1-azabicyclo [3,2,0] heptan-7-one]: 740 nM and 4500 nM.
The matching figures for `CC(C)C[C@H](NC(=O)OCc1ccccc1)C(=O)N1CCC[C@H]1C(=O)OC[C@H]1CN2C(=O)C[C@@H]2O1` (mixture of isomers) [Example 9, (3RS, 5SR)-3-{N-(benzyloxycarbonyl)-L-leucyl-L-prolyl}-oxymethyl-4-oxa-1-azabicyclo [3,2,0] heptan-7-one]: 2050 nM and 2900 nM.
For `O=C(OC[C@H]1CN2C(=O)C[C@@H]2O1)C1CCCCC1` (racemic) [Example 11, (3RS,5SR)-3-(cyclohexanecarbonyloxymethyl)-4-oxa-1-azabicyclo [3,2,0] heptan-7-one], the IC50 in experiment [1] (setting [4]) worked out at 1000 nM; in experiment [2] (setting [3]), 790 nM.
For `O=C(OC[C@H]1CN2C(=O)C[C@@H]2O1)C1CCCC1` (racemic) [Example 12, (3RS,5SR)-3-(cyclopentanecarbonyloxymethyl)-4-oxa-1-azabicyclo [3,2,0] heptan-7-one], in that order: 1130 nM and 660 nM.
The matching figures for `Cc1c(C(=O)NC[C@@H]2CN3C(=O)C[C@@H]3O2)c(=O)[nH]c2ccccc12` (racemic) [Example 16, (3RS, 5SR)-3-(1,2-dihydro-4-methyl-2-oxo-quinolin-3-yl)-carbonylaminomethyl-4-oxa-1-azabicyclo [3,2,0] heptan-7-one]: 700 nM and 4200 nM.
The matching figures for `Cc1c(C(=O)OC[C@H]2CN3C(=O)C[C@@H]3O2)c(=O)[nH]c2ccccc12` (relative stereo) [Example 10, (3RS, 5SR)-3-(1,2-dihydro-4-methyl-2-oxo-guinolin-3-yl)-carbonyloxymethyl-4-oxa-1-azabicyclo [3,2,0] heptan-7-one]: 140 nM and 3050 nM.
Take `O=C(/C=C/c1ccccc1)OC[C@H]1CN2C(=O)C[C@@H]2O1` (relative stereo) [Example 13, (3RS, 5SR)-3-(trans-3-phenylpropenoyl)oxymethyl-4-oxa-1-azabicyclo [3,2,0] heptan-7-one]: the IC50 in experiment [1] (setting [4]) stood at 450 nM; in experiment [2] (setting [3]), 4060 nM.
Take `Cn1c2nc(=O)[nH]c(=O)c-2nc2cc(C(=O)OC[C@H]3CN4C(=O)C[C@@H]4O3)ccc21` (relative stereo) [Example 14, (3RS, 5SR)-3-(10-methylisoalloxazin-7-yl)-carbonyloxy methyl-4-oxa-1-azabicyclo [3,2,0] heptan-7-one]: the IC50 came to 760 nM in experiment [1] (setting [4]) and 16900 nM in experiment [2] (setting [3]).
For `CCOC(=O)c1ccc2c(c1)nc1c(=O)n(C[C@H]3CN4C(=O)C[C@@H]4O3)c(=O)nc-1n2C` (relative stereo) [Example 15, (3RS, 5SR)-3-(7-ethoxycarbonyl-10-methylisoalloxazin-3-yl) -methyl-4-oxa-1-azabicyclo [3,2,0] heptan-7-one], in that order: 1240 nM and 2890 nM.
Regarding `CC(C)(C)[Si](C)(C)OC[C@H]1CN2C(=O)C[C@@H]2O1` [Example 1A, (3R, 5S)-3-(tert-butyldimethylsilyl)oxymethyl-4-oxa-1-azabicyclo [3,2,0] heptan-7-one], the IC50 was found to be 160 nM in experiment [1] (setting [4]) and 778 nM in experiment [2].
As to `CC(C)(C)[Si](C)(C)OC[C@H]1CN2C(=O)C[C@H]2O1` [Example 1B, (3R, 5R)-3-(tert-butyldimethylsilyl)oxymethyl-4-oxa-1-azabicyclo [3,2,0] heptan-7-one], the IC50 is 3100 nM in experiment [1] (setting [4]) and 7780 nM in experiment [2].
For the compound `O=C1C[C@@H]2O[C@@H](CO)CN12` [Example 2, (3R, 5S)-3-hydroxymethyl-4-oxa-1-azabicyclo[3,2,0] heptan-7-one], the IC50 in experiment [1] (setting [4]) was 2030 nM; in experiment [2] (setting [3]), 5000 nM.
The matching figures for `CC(=O)NC[C@H]1CN2C(=O)C[C@@H]2O1` [Example 3, (3S,5S)-3-(N-acetylamino)methyl-4-oxa-1-azabicyclo [3,2,0] heptan-7-one]: 590 nM and 560 nM.
Consider `O=C1C[C@@H]2O[C@@H](Cn3ccnn3)CN12` [Example 17, (3R,5S)-3-(1,2,3-triazol-1-yl)-methyl-4-oxa-1-azabicyclo [3,2,0] heptan-7-one], for which the IC50 in experiment [1] and in experiment [2] (setting [3]) was 290 nM each time.
For the compound `O=C(CC1CN2C(=O)CC2O1)OC(c1ccccc1)c1ccccc1` (stereo not shown) [Example 18, diphenylmethyl 2-(7-oxo-4-oxa-1-azabicyclo [3,2,0]heptan-3-yl)-acetate], the IC50 in experiment [1] (setting [4]) worked out at 2080 nM; in experiment [2] (setting [3]), 2970 nM.
For `O=C(OCc1ccccc1)[C@@H]1CCCN1C(=O)CC1CN2C(=O)CC2O1` (stereo partly drawn) [Example 20, N-{(7-oxo-4-oxa-1-azabicyclo [3,2,0]heptan-3-yl)-methylcarbonyl} L-proline benzyl ester], in that order: 560 nM and 13700 nM.
The matching figures for `NC(CC(=O)O)C(=O)NCC1CN2C(=O)CC2O1` (stereo not shown) [Example 21]: > 20000 nM and 12600 nM.
For `NC(CC(=O)O)C(=O)OCC1CN2C(=O)CC2O1` (stereo not shown) [Example 22], in that order: > 20000 nM and > 20000 nM.
On to `O=C(N[C@@H](Cc1ccccc1)C(=O)NCC1CN2C(=O)CC2O1)OCc1ccccc1` (stereo partly shown) [Example 23], for which the IC50 in experiment [1] (setting [4]) came out at 350 nM; in experiment [2] (setting [3]), 2400 nM.
For `NC(CCC(=O)OCC1CN2C(=O)CC2O1)C(=O)O` (stereo not shown) [Example 24], in that order: 2920 nM and 12000 nM.
For `CC(N)C(=O)OCC1CN2C(=O)CC2O1` (stereo not shown) [Example 25], in that order: 3310 nM and > 20000 nM.
The matching figures for `CC(N)C(=O)NCC1CN2C(=O)CC2O1` (stereo not shown) [Example 26]: 2910 nM and > 20000 nM.
Turning to `O=C(CCl)NCC1CN2C(=O)CC2O1` (stereo not shown) [Example 27], the IC50 in experiment [1] (setting [4]) stood at 900 nM; in experiment [2] (setting [3]), 400 nM.
Consider `O=C1CC2OC(CNC(=O)C(F)(F)F)CN12` (stereo not shown) [Example 28], for which the IC50 in experiment [1] (setting [4]) was found to be 840 nM; in experiment [2] (setting [3]), 330 nM.
The matching figures for `O=C(O)C[S+]([O-])CC1CN2C(=O)CC2O1` (stereo not shown) [Example 29]: 3900 nM and 380 nM.
For `CC(C)C(=O)NCC1CN2C(=O)CC2O1` (stereo not shown) [Example 30], in that order: 950 nM and 460 nM.
The matching figures for `CC(=O)NCC(=O)NCC1CN2C(=O)CC2O1` (stereo not shown) [Example 31]: 4100 nM and 2600 nM.
On to `CCCCCC(=O)NCC1CN2C(=O)CC2O1` (stereo not shown) [Example 32], for which the IC50 in experiment [1] (setting [4]) and in experiment [2] (setting [3]) was 2300 nM throughout.
As to `CS(=O)(=O)NCC1CN2C(=O)CC2O1` (stereo not shown) [Example 33], the IC50 was found to be 910 nM in experiment [1] (setting [4]) and 950 nM in experiment [2] (setting [3]).
The matching figures for `CC(=O)NCC[S+]([O-])CC1CN2C(=O)CC2O1` (stereo not shown) [Example 34]: 3800 nM and 14600 nM.
`O=C(O)CS(=O)(=O)CC1CN2C(=O)CC2O1` (stereo not shown) [Example 35]: the IC50 in experiment [1] (setting [4]) came to 12900 nM; in experiment [2] (setting [3]) it was 740 nM.
The matching figures for `CCCCCCCCCCCCCCCC(=O)OCC1CN2C(=O)CC2O1` (stereo not shown) [Example 36]: > 50000 nM and > 50000 nM.
The matching figures for `O=C(O)C=CC(=O)OCC1CN2C(=O)CC2O1` (stereo not shown) [Example 37]: 19000 nM and 1900 nM.
